Tests used:
[1] = described ranking of GA isoforms; cited from earlier work
[2] = target: T1, Arabidopsis thaliana GID1C based sensor (Arabidopsis thaliana, UniProt Q940G6); test: in planta assay: GA sensor in ga1-3 mutant plants sprayed with GA3, luciferase imaging; format: in vivo; details: ga1-3 plants containing the sensor, sprayed with 100 μM GA3 solution vs mock; FIG. 4
T1 construct: expressed in transfected cells; host or cells: Arabidopsis thaliana ga1-3 mutant plants (Ler background), Agrobacterium floral dip, construct IR216 (35S::GID1CLUC in pFK210)
From the text: To validate in planta the results obtained in yeast, the inventors introduced the GA sensors under the control of the constitutive viral promoter 35S into Arabidopsis thaliana plants. The constructs IR208 and IR216 were independently introduced using the floral dip method of Agrobacterium-mediated transformation into the Arabidopsis thaliana Ler-1 (Landsberg erecta) wild-type strain and its isogenic ga1-3 mutant strain (containing a deletion in the gene for the enzyme that catalyzes an early step in the synthesis of GA: Sun et al., Plant Cell, 1992, 4, 119-128). Plants were grown in soil under Basta™ selection and short day conditions (8h light/16h dark).
In this case, the Arabidopsis thaliana GID1C based sensor produced a faster and stronger signal than the Arabidopsis thaliana GID1B based sensor. To ascertain whether the reporter system according to the invention could quantitatively report the presence of endogenous bioactive GA isoforms, the inventors grew the Arabidopsis thaliana Ler-1 wild-type plants containing the Arabidopsis thaliana GID1C based sensor along with Arabidopsis thaliana GA3ox1-GUS and GA3ox2-GUS reporter lines. The GA sensor was active in a pattern that indicated the presence of active forms of GA in emerging leaves and at the base and vasculature of older leaves. […]

[3] = target: T2, GID1B based sensor (GID1B.5) (Arabidopsis thaliana, UniProt Q9LYC1, V53A); test: yeast solid media luciferase assay, GID1B based sensor (GID1B.5) with overlapping firefly luciferase fragments; format: cell-based; details: GA3 100 μM vs mock (100% ethanol), FIG. 7
T2 construct: a GID1B based sensor with overlapping firefly luciferase fragments (plasmid IR235); expressed in transfected cells; host or cells: Saccharomyces cerevisiae (yeast), plasmid printed as IR235
Protocol: In order to assess the impact of the presence of overlapping parts of firefly luciferase on the GID1B based sensor (GID1B.5) at the split point, a GID1B based sensor with overlapping firefly luciferase fragments (plasmid IR235) was compared in a Y2H assay to a GID1B based sensor without overlapping firefly luciferase fragments (plasmid IR241).
Four representative colonies were selected and plated onto Nylon membranes as described before. After 3 days at 30° C. the membranes were incubated in selective media containing luciferase substrate for 4 hours in dark at room temperature. Each replicate was subsequently transferred to plates containing selective media supplemented with luciferase substrate. […] Luciferase activity was recorded as indicated before.

[4] = target: T3, GID1C based sensor peptide with co-expression of a DELLA protein (GAI) (Arabidopsis thaliana, UniProt Q940G6); test: yeast liquid luciferase assay, GID1C based sensor with co-expression of the DELLA protein GAI; format: cell-based; details: Saccharomyces cerevisiae, GAI co-expressed; FIG. 6D
T3 construct: expressed in transfected cells; host or cells: Saccharomyces cerevisiae AH109, plasmids IR214 (GID1CLUC-pDest22) and IR236 (GAI in pDEST32)
Protocol: Two representative colonies were selected and plated onto Nylon membranes as described before. After 3 days at 30° C. the membranes were incubated in selective media containing luciferase substrate for 4 hours in dark at room temperature. […] Luciferase activity was recorded as indicated before. For liquid assays, the inventors inoculated one representative colony for each version of the sensor in 5 ml of selective media (YNB, MPBlo, supplemented with CSM Trp^−, Bio 101) containing luciferase substrate and grown under shaking at 28° C. for 18 hours. […] Plates were incubated for 16 hours at 28° C. in a cabinet and luciferase activity was recorded during the entire period of the experiment using a Topcount™ device (Perkin Elmer).
First, the coding sequence of the DELLA protein GAI (At1g14920) was cloned into the yeast plasmid pDEST32 (Invitrogen) yielding the construct IR236. Subsequently, yeast cells were transformed with the plasmids IR206 or IR214 in combination with the empty pDEST32 vector or IR236. Following the same approach than described before in Example 3, we assayed 4 GA isoforms, the same four than in the former assay. The experimental setting was the same than in Example 3 with the difference that the selective media used was deficient in Trp and Leu (YNB, MPBlo, supplemented with CSM Trp^−Leu^−, Bio 101) to select for the presence of both plasmids within the yeast cells. […]

T2 sequence (Q9LYC1 other isoform, or with tags, fused parts or gaps V53A): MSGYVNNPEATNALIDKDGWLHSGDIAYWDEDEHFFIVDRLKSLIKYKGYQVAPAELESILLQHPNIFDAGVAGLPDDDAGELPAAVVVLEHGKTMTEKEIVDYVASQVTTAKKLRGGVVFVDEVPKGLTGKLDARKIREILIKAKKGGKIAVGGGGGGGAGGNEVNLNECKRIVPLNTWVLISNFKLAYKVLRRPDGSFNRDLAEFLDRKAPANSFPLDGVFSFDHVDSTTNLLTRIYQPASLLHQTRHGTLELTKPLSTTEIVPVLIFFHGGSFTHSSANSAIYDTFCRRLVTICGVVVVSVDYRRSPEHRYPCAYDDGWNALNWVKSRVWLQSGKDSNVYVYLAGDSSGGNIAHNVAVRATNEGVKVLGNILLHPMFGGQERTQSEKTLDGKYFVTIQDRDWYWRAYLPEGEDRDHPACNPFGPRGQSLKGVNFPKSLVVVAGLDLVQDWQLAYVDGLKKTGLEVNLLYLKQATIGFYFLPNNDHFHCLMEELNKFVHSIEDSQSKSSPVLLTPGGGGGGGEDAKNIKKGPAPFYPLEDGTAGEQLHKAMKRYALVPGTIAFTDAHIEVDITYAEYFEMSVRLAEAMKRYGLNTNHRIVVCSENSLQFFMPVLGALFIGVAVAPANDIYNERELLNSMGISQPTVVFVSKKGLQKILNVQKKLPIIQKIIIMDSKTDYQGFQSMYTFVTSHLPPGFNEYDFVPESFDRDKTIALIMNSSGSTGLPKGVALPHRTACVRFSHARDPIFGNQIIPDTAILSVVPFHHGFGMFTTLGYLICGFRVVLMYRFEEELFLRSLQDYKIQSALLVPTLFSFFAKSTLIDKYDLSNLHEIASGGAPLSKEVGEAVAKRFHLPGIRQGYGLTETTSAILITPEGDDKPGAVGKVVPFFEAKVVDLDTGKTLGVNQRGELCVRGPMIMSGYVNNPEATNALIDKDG
T3 sequence (Q940G6 with tags, fused parts or gaps): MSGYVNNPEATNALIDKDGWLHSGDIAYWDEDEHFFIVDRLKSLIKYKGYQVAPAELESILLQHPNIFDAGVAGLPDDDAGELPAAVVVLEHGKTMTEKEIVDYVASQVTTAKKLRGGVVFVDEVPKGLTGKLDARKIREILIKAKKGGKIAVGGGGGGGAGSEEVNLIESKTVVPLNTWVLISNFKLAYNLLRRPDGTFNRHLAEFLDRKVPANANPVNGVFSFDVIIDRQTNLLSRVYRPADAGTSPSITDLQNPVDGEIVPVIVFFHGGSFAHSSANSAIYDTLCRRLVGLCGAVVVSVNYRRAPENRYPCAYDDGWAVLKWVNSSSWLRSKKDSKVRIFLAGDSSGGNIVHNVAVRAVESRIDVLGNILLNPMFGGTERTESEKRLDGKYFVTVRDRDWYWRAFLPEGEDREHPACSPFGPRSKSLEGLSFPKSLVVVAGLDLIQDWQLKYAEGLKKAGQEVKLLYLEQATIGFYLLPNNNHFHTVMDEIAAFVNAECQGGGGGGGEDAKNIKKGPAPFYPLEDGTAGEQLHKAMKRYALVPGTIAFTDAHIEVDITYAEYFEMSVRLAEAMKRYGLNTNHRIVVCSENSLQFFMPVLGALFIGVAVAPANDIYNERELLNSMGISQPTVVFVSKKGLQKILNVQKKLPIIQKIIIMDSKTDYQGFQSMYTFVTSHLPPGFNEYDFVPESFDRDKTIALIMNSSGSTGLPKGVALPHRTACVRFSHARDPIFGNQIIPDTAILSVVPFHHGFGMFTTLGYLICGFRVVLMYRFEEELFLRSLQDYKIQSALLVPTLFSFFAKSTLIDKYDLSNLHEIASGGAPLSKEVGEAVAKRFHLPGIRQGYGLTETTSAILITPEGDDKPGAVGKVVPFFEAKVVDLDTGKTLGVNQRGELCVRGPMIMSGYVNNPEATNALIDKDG
T3 sequence (Q9LQT8 2-533 partner limits assumed): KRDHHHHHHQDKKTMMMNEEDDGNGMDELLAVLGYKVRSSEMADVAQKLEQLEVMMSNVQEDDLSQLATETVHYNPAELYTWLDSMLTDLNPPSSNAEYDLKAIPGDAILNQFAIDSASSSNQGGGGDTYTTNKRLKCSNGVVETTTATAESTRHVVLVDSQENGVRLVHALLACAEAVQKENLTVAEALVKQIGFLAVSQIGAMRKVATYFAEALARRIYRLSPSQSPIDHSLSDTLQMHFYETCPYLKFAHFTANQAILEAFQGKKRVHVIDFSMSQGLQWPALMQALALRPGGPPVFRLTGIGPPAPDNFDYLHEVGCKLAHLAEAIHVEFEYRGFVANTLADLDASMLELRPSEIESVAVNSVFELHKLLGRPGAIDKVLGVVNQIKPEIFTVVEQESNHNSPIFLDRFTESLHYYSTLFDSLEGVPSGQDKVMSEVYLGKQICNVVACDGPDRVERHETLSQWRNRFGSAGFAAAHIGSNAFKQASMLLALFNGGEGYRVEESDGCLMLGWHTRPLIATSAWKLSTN
T1 sequence (Q940G6 with tags, fused parts or gaps): as the sequence (Q940G6 with tags, fused parts or gaps) above

| luciferase signal [4] | SMILES | biological activity in planta assay [1] | bioluminescence upon luciferase substrate application [2] | luciferase signal [3] |
| --- | --- | --- | --- | --- |
| – | C=C1C[C@]23C[C@@]1(O)CC[C@H]2[C@@]12CC[C@H](O)[C@@](C)(C(=O)O1)[C@H]2[C@@H]3C(=O)O [GA1] | less activity | – | – |
| – | C=C1C[C@]23C[C@@]1(O)CC[C@H]2[C@@]12C=C[C@H](O)[C@@](C)(C(=O)O1)[C@H]2[C@@H]3C(=O)O [GA3, gibberellic acid] | – | showed bioluminescence | clearly higher |
| triggered luciferase signal | C=C1C[C@]23C[C@H]1CC[C@H]2[C@@]12CC[C@H](O)[C@@](C)(C(=O)O1)[C@H]2[C@@H]3C(=O)OC [GA4-methylester, GA4-methyl ester] | barely active | – | – |
| – | C=C1C[C@]23C[C@H]1CC[C@H]2[C@@]12CC[C@H](O)[C@@](C)(C(=O)O1)[C@H]2[C@@H]3C(=O)O [GA4] | most biologically active | – | – |
